Measured values as given in ChEMBL document CHEMBL1201862, “PubChem BioAssay data set” (2004).
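96-well plates; 48 h exposure; 5 concentrations. Endpoints by linear interpolation between flanking doses. Not reached: highest tested concentration assigned. GI50 marks 50% less growth.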 Active and inactive are the calls of the source. No stated cut-off is given here; in the data, active = GI50 up to about 1.1 µM and inactive = higher.

Tests used:
Assay in all cases: NCI anticancer screen, dose series, 48 h
SR = tested on: SR
NCI-H522 = tested on: NCI-H522
MOLT-4 = tested on: MOLT-4
SF-295 = tested on: SF-295
NCI-H23 = tested on: NCI-H23
CCRF-CEM = tested on: CCRF-CEM
SK-OV-3 = tested on: SK-OV-3
NCI-H460 = tested on: NCI-H460
TK-10 = tested on: TK-10
M14 = tested on: M14
DMS-273 = tested on: DMS-273
HCT-116 = tested on: HCT-116
HT-29 = tested on: HT-29
KM-20L2 = tested on: KM-20L2
OVCAR-8 = tested on: OVCAR-8
UACC-62 = tested on: UACC-62
U-251 = tested on: U-251
SK-MEL-28 = tested on: SK-MEL-28
NCI-H226 = tested on: NCI-H226
A549 = tested on: A549
A498 = tested on: A498
DMS-114 = tested on: DMS-114
HOP-92 = tested on: HOP-92
HL-60 = tested on: HL-60
RXF 393 = tested on: RXF 393
UACC-257 = tested on: UACC-257
HOP-62 = tested on: HOP-62
OVCAR-5 = tested on: OVCAR-5
IGROV-1 = tested on: IGROV-1
ACHN = tested on: ACHN
M19-MEL = tested on: M19-MEL
SNB-78 = tested on: SNB-78
KM12 = tested on: KM12
RXF 631 = tested on: RXF 631
EKVX = tested on: EKVX
SK-MEL-2 = tested on: SK-MEL-2
HCT-15 = tested on: HCT-15
HOP-18 = tested on: HOP-18
SF-539 = tested on: SF-539
UO-31 = tested on: UO-31
786-0 = tested on: 786-0
COLO 205 = tested on: COLO 205
SN12C = tested on: SN12C
SW-620 = tested on: SW-620
OVCAR-4 = tested on: OVCAR-4
SNB-75 = tested on: SNB-75
Malme-3M = tested on: Malme-3M
DLD-1 = tested on: DLD-1
OVCAR-3 = tested on: OVCAR-3
CAKI-1 = tested on: CAKI-1
RPMI-8226 = tested on: RPMI-8226
K562 = tested on: K562
SK-MEL-5 = tested on: SK-MEL-5
LXFL 529 = tested on: LXFL 529
SNB-19 = tested on: SNB-19
LOX IMVI = tested on: LOX IMVI
XF498 = tested on: XF498
HCC 2998 = tested on: HCC 2998
SF-268 = tested on: SF-268

With `NCC(=O)NC(CCCC(NC(=O)CN)P(=O)(O)O)P(=O)(O)O` (configuration not stated) the GI50 (SR) was > 100 µM (inactive), the GI50 (NCI-H522) was > 100 µM (inactive) and the GI50 (MOLT-4) was > 100 µM (inactive). The GI50 (SF-295) was > 100 µM (inactive), the GI50 (NCI-H23) was > 100 µM (inactive) and the GI50 (CCRF-CEM) was > 100 µM (inactive). The GI50 (SK-OV-3) was > 100 µM (inactive), the GI50 (NCI-H460) was > 100 µM (inactive) and the GI50 (TK-10) was > 100 µM (inactive). For the same compound, the GI50 (M14) was > 100 µM (inactive), the GI50 (DMS-273) was > 100 µM (inactive) and the GI50 (HCT-116) was > 100 µM (inactive). The GI50 (HT-29) was > 100 µM (inactive), the GI50 (KM-20L2) was > 100 µM (inactive) and the GI50 (OVCAR-8) was > 100 µM (inactive). The GI50 (UACC-62) was > 100 µM (inactive), the GI50 (U-251) was > 100 µM (inactive) and the GI50 (SK-MEL-28) was > 100 µM (inactive). The GI50 (NCI-H226) was 26 µM (inactive), the GI50 (A549) was > 100 µM (inactive) and the GI50 (A498) was > 100 µM (inactive). For the same compound, the GI50 (DMS-114) was > 100 µM (inactive), the GI50 (HOP-92) was > 100 µM (inactive) and the GI50 (HL-60) was > 100 µM (inactive). The GI50 (RXF 393) was > 100 µM (inactive), the GI50 (UACC-257) was > 100 µM (inactive) and the GI50 (HOP-62) was > 100 µM (inactive). For the same compound, the GI50 (OVCAR-5) was > 100 µM (inactive), the GI50 (IGROV-1) was > 100 µM (inactive) and the GI50 (ACHN) was > 100 µM (inactive). The GI50 (M19-MEL) was > 100 µM (inactive), the GI50 (SNB-78) was > 100 µM (inactive) and the GI50 (KM12) was > 100 µM (inactive). For the same compound, the GI50 (RXF 631) was > 100 µM (inactive) and the GI50 (EKVX) was > 100 µM (inactive).

`COc1ccc2c(c1)[n+]([O-])c(-c1nc3ccccc3s1)c(N)[n+]2[O-]` was tested, and the GI50 (SR) was 59.6 µM (inactive), the GI50 (NCI-H522) was 51.3 µM (inactive) and the GI50 (MOLT-4) was 43.8 µM (inactive). The GI50 (SF-295) was > 100 µM (inactive), the GI50 (SK-MEL-2) was > 100 µM (inactive) and the GI50 (HCT-15) was 89.5 µM. The GI50 (NCI-H23) was 64.9 µM (inactive), the GI50 (HOP-18) was > 100 µM (inactive) and the GI50 (SK-OV-3) was > 100 µM (inactive). The GI50 (NCI-H460) was 47.3 µM (inactive), the GI50 (SF-539) was > 100 µM (inactive) and the GI50 (M14) was > 100 µM (inactive). The GI50 (DMS-273) was > 100 µM (inactive), the GI50 (UO-31) was 34 µM (inactive) and the GI50 (786-0) was > 100 µM (inactive). The GI50 (HCT-116) was 54.3 µM (inactive), the GI50 (COLO 205) was 36.5 µM (inactive) and the GI50 (HT-29) was > 100 µM (inactive). For the same compound, the GI50 (KM-20L2) was > 100 µM (inactive), the GI50 (OVCAR-8) was > 100 µM (inactive) and the GI50 (SN12C) was > 100 µM (inactive). For the same compound, the GI50 (U-251) was 78 µM (inactive), the GI50 (SW-620) was > 100 µM (inactive) and the GI50 (OVCAR-4) was > 100 µM (inactive). For the same compound, the GI50 (SK-MEL-28) was 55.6 µM (inactive), the GI50 (NCI-H226) was > 100 µM (inactive) and the GI50 (SNB-75) was 39.1 µM (inactive). For the same compound, the GI50 (A549) was > 100 µM (inactive), the GI50 (Malme-3M) was > 100 µM (inactive) and the GI50 (A498) was 45.8 µM (inactive). The GI50 (HOP-92) was > 100 µM (inactive), the GI50 (HL-60) was 39.4 µM (inactive) and the GI50 (DLD-1) was 69.2 µM (inactive). The GI50 (UACC-257) was 63.5 µM (inactive), the GI50 (OVCAR-3) was 78.7 µM (inactive) and the GI50 (HOP-62) was > 100 µM (inactive). For the same compound, the GI50 (CAKI-1) was > 100 µM (inactive), the GI50 (OVCAR-5) was > 100 µM (inactive) and the GI50 (IGROV-1) was > 100 µM (inactive). The GI50 (ACHN) was 93.1 µM (inactive), the GI50 (M19-MEL) was 49.7 µM (inactive) and the GI50 (SNB-78) was > 100 µM (inactive). For the same compound, the GI50 (RPMI-8226) was 35.5 µM (inactive), the GI50 (KM12) was > 100 µM (inactive) and the GI50 (RXF 631) was 88.5 µM (inactive). The GI50 (K562) was 64.4 µM (inactive), the GI50 (EKVX) was > 100 µM (inactive) and the GI50 (SK-MEL-5) was 38.8 µM (inactive). The GI50 (LXFL 529) was 58.1 µM (inactive) and the GI50 (SNB-19) was > 100 µM (inactive).

With `COC(=O)N1CCc2c(nc(N(C)CCO)[nH]c2=O)C1` the GI50 (SR) was > 100 µM (inactive), the GI50 (NCI-H522) was > 100 µM (inactive) and the GI50 (MOLT-4) was > 100 µM (inactive). For the same compound, the GI50 (SF-295) was > 100 µM (inactive), the GI50 (SK-MEL-2) was > 100 µM (inactive) and the GI50 (HCT-15) was greater than 100 µM. For the same compound, the GI50 (NCI-H23) was > 100 µM (inactive), the GI50 (HOP-18) was > 100 µM (inactive) and the GI50 (CCRF-CEM) was > 100 µM (inactive). For the same compound, the GI50 (SK-OV-3) was > 100 µM (inactive), the GI50 (NCI-H460) was > 100 µM (inactive) and the GI50 (LOX IMVI) was > 100 µM (inactive). For the same compound, the GI50 (SF-539) was > 100 µM (inactive), the GI50 (TK-10) was > 100 µM (inactive) and the GI50 (M14) was > 100 µM (inactive). For the same compound, the GI50 (DMS-273) was > 100 µM (inactive), the GI50 (UO-31) was > 100 µM (inactive) and the GI50 (XF498) was > 100 µM (inactive). For the same compound, the GI50 (786-0) was > 100 µM (inactive), the GI50 (HCT-116) was > 100 µM (inactive) and the GI50 (COLO 205) was > 100 µM (inactive). The GI50 (HT-29) was > 100 µM (inactive), the GI50 (KM-20L2) was > 100 µM (inactive) and the GI50 (OVCAR-8) was > 100 µM (inactive). The GI50 (SN12C) was > 100 µM (inactive), the GI50 (UACC-62) was > 100 µM (inactive) and the GI50 (U-251) was > 100 µM (inactive). The GI50 (SW-620) was > 100 µM (inactive), the GI50 (SK-MEL-28) was > 100 µM (inactive) and the GI50 (NCI-H226) was > 100 µM (inactive). The GI50 (SNB-75) was > 100 µM (inactive), the GI50 (A549) was > 100 µM (inactive) and the GI50 (HCC 2998) was > 100 µM (inactive). The GI50 (Malme-3M) was > 100 µM (inactive), the GI50 (A498) was > 100 µM (inactive) and the GI50 (DMS-114) was > 100 µM (inactive). The GI50 (HOP-92) was > 100 µM (inactive), the GI50 (HL-60) was > 100 µM (inactive) and the GI50 (DLD-1) was > 100 µM (inactive). For the same compound, the GI50 (RXF 393) was > 100 µM (inactive), the GI50 (UACC-257) was > 100 µM (inactive) and the GI50 (OVCAR-3) was > 100 µM (inactive). For the same compound, the GI50 (HOP-62) was > 100 µM (inactive), the GI50 (CAKI-1) was > 100 µM (inactive) and the GI50 (OVCAR-5) was > 100 µM (inactive). For the same compound, the GI50 (IGROV-1) was > 100 µM (inactive), the GI50 (ACHN) was > 100 µM (inactive) and the GI50 (M19-MEL) was > 100 µM (inactive). For the same compound, the GI50 (SNB-78) was > 100 µM (inactive), the GI50 (RPMI-8226) was > 100 µM (inactive) and the GI50 (KM12) was > 100 µM (inactive). For the same compound, the GI50 (K562) was > 100 µM (inactive), the GI50 (EKVX) was > 100 µM (inactive) and the GI50 (SK-MEL-5) was > 100 µM (inactive). The GI50 (SF-268) was > 100 µM (inactive), the GI50 (LXFL 529) was > 100 µM (inactive) and the GI50 (SNB-19) was > 100 µM (inactive).
